Several values for one entry are separate records, joined by “and”; a condition that tells them apart may be missing. Identical values can stand only once.
Legend:
Human recombinant GSK-3β = molecular target: T1, Human recombinant GSK-3β (Homo sapiens, UniProt P49841); test: GSK-3β inhibition in vitro assay (Kinase-Glo luminescence); type: biochemical; conditions: ATP 1 µM, GSM substrate 25 µM; mean ± SEM
T1 construct: purchased Millipore (Millipore Iberica S.A.U.)
Experimental: Human recombinant GSK-3β, prephosphorylated polypeptide substrate and white 96-well plates were purchased from Millipore (Millipore Iberica S.A.U.). Kinase-Glo Luminescent Kinase Assay was obtained from Promega (Promega Biotech Iberica, SL). Adenosinetriphosphate (ATP) and all other reagents were from Sigma-Aldrich. Assay buffer contained 50 mM 4-(2-hydroxyethyl)-1- piperazineethanesulfonic acid (HEPES) (pH 7.5), 1 mM ethylenediaminetetraacetic acid (EDTA), 1 mM ethylene glycol tetraacetic acid (EGTA), and 15 mM magnesium acetate. The in solution experiments for GSK-3β inhibition analysis were performed by following the method developed by Baki et al^42. In a typical assay, 10 µL of test compound (dissolved in DMSO at 1 mM concentration and diluted in advance in assay buffer to the desired concentration) and 10 µL (20 ng) of enzyme were added to each well in presence of 20 µL of assay buffer containing GSM substrate and ATP in order to reach a 25 µM and 1 µM final concentration respectively. […] After a 30 min incubation time at 30 °C, the enzymatic reaction was stopped by adding 40 µL of Kinase-Glo reagent. Glow-type luminescence was recorded after 10 min using a VictorX 3 PerkinElmer plate reader. […]. The linear regression parameters were determined and the IC50 extrapolated (GraphPad Prism 4.0, GraphPad Software Inc.).

SH-SY5Y cells = test: Effect on Aβ25-35 peptide-induced cell death (MTT assay); type: cell-based; conditions: Homo sapiens, read-out: increase in cell viability
Experimental: Lyophilized synthetic Aβ25-35 peptide was dissolved in sterile water at a concentration of 2 mM, aliquoted and kept at -80°C until use. Aliquots were diluted in culture medium to achieve a final concentration of 30 µM and incubated for 72h at 37°C to form aggregated amyloid. SH-SY5Y cells were seeded in 96-well culture plates at a density of 12 × 10^4 cells per well in DMEM/F12 (1 :1) medium supplemented with 10% fetal bovine serum, 1X non-essential amino acids, 100 units/ml penicillin and 10 mg/ml streptomycin (Dutscher, France). Cultures were kept under a CO2/air (5%/95%) humidified atmosphere at 37°C. After 24h of incubation, the cultures were treated with 100 µl of the compound BIGI-3h or DMSO (0.1%) in DMEM/F12 (1:1) medium supplemented with 1% fetal bovine serum, 1X non-essential amino acids, 100 units/ml penicillin and 10 mg/ml streptomycin. After 24h of treatment, cells were co-incubated with Aβ25-35 peptide (30 µM) with or without the compound BIGI-3h for an additional period of 24h. MTT assay, a common colorimetric assay for assessing cell metabolic activity, was performed as described below.
The cell viability was assessed by measuring the reduction of MTT (3-(4,5-dimethylthiazol-2-yl)-2,5-diphenyltetrazolium bromide) to a formazan product. […] The absorbance at 570 nm and 630 nm (background) was measured using a microplate reader.

mice = test: Object Recognition task (ORT), scopolamine-induced memory impairment; type: in vivo
Experimental: For behavioural studies, 50 swiss female 10-week-old weighing 25-30 g were used. Memory impairment was induced by the potent antimuscarinic drug scopolamine hydrobromide (0.5 mg/kg, Sigma) dissolved in saline buffer. To explore the potential of BIGI-3h as a cognitive enhancer, the compound was administered at a dose of 1 mg/kg and 10 mg/kg. For comparison, the antiamnesic effect of donepezil was tested (Tocris Bioscience, R&D Systems Inc.) at a dose of 1 mg/kg. Both products, 3h and donepezil, were dissolved in saline buffer containing 3.6% dimethyl sulfoxide. All drug solutions were independently prepared immediately before their use and were administered intraperitoneally in 10 mL/kg of vehicle volume. Different batches of mice were used for each experiment. The animals were distributed into 5 experimental groups (I-V): control groups (I) mice administered 3.6% DMSO in saline buffer, labelled as "control vehicle"; experimental groups (II-V) consisted of (II) mice administered scopolamine dissolved in 3.6% DMSO in saline buffer, labelled as "scop/DMSO," (III) mice co-administered scopolamine plus Donepezil, labelled as "Scopo/donep," (IV) and (V) mice co-administrated scopolamine plus BIGI-3h at 1mg/Kg and 10mg/Kg labelled respectively "Scopo/3h 1" "Scopo/3h 10".
Spontaneous object recognition was tested as described previously, 28 with slight modifications. All behavioural experiments took place during the light phase of the 12-h light/ dark cycle between 10 am and 3 pm to minimize the influence of circadian rhythm, and they were conducted with the investigators blind to treatments. […] The total time spent in active exploration of each object during T1 and T2 was determined with a computerized tracking system and image analyzer (Ethovision XT, Noldus Information Technology) that tracked the nose, centre and tail points of each mouse^45. As a criterion of active object exploration, it was measured the time spent by the animal directing its nose to the object at a distance of less than 2 cm and/or touching it with the vibrissae or nose. […]

Tau(306-336) peptide = Tau(306-336) peptide (Homo sapiens, UniProt P10636); conditions: Tau(306-336) 50 µM, inhibitor 50 µM (1:1 ratio); mean ± SEM; 50 µM
Sequence of Tau(306-336) peptide (P10636 623-653 limits assumed): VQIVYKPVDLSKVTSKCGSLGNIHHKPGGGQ
Experimental: Subsequently, the sample was aliquoted dried and stored at -20 °C.
Fluorescence data were recorded every 10 min overnight with 1 min shaking at 800 rpm prior to each reading. Each inhibitor was assayed in triplicates in at least two independent experiments. […] Inhibition % are expressed as the mean ± SEM. […] Values were averaged and the presented values are expressed as the mean ± SEM.
Fluorescence data were recorded every 10 min overnight with 1 min shaking at 800 rpm prior to each reading.

T1 sequence (P49841 whole entry): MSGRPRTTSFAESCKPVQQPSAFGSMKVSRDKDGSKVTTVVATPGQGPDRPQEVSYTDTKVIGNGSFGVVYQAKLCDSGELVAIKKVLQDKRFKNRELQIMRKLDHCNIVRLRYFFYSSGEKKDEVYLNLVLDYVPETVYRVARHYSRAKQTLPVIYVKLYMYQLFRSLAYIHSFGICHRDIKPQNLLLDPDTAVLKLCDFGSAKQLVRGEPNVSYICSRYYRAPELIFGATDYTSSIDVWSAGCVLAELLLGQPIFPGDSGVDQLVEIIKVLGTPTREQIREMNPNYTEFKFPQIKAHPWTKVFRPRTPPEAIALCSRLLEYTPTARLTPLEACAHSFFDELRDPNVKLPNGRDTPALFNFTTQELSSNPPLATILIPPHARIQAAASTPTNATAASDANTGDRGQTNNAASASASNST

SMILES: CCOC(=O)C1=C(C)N(CCC2CCN(Cc3ccccc3)CC2)C(=O)NC1c1coc2c(Cl)cc(Cl)cc2c1=O (racemic) [BIGI-3h, ethyl 1-(2-(1-benzylpiperidin-4-yl)ethyl)-4-(6,8-dichloro-4-oxo-4H-chromen-3-yl)-6-methyl-2-oxo-1,2,3,4-tetrahydropyrimidine-5-carboxylate]
- IC50 (Human recombinant GSK-3β): 29.1 µM
- viability at 10 µM (SH-SY5Y cells): 40.4%
- viability at 20 µM (SH-SY5Y cells): 61.4%
- recognition index / discrimination index (Figure 5) (mice; 1 mg/kg intraperitoneally with scopolamine 0.5 mg/kg): reversed the short-term memory impairment induced by scopolamine
- recognition index / discrimination index (Figure 5) (mice; 10 mg/kg intraperitoneally with scopolamine 0.5 mg/kg, **p < 0.01 vs scopo/DMSO): significantly improved discrimination index
- Inhibition of T (306-336) peptide self - aggregation (%) (Tau(306-336) peptide): 73.7% and 73.7 ± 5.4%

Reference: EP4168403B1 (priority 2020, dated 2021)
